Measured values reported in US20240246920A1, “TRIAZOLE DERIVATIVES WITH ANTIFUNGAL ACTIVITY” (King's College London, priority 2020, published 2024).
Values after ≈ are worked out from the molar mass of the structure shown. Read-outs that look alike come from different tables or passages of the source.

Columns and labels:
Candida auris TDG2512 = test: Candida panel MIC, serial dilution in 96-well plates; assay type: cell-based; details: Candidozyma auris, TDG2512; Table 4, extended panel; 24 hours, ≥50% inhibition; read-out: MIC Candida auris TDG2512
How it was run: (§1)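 RPMI/MOPS/2% glucose pH 7.0; 2-fold series 128→0.25 μg/mL; inoculum 0.5-5×10^5/mL; 37 °C, 24 h; OD530 read; MIC at ≥50% growth inhibition vs drug-free control.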

Candida auris TDG1102 = test: as above; assay type: cell-based; details: Candidozyma auris, TDG1102; Table 4, extended panel; 24 hours, ≥50% inhibition; read-out: MIC Candida auris TDG1102
How it was run: as §1

C. auris TDG1912 = test: as above; assay type: cell-based; details: Candidozyma auris, TDG1912; Table 4; 24 hours, ≥50% inhibition; read-out: MIC C. auris TDG1912
How it was run: as §1

C. tropicalis NCPF8760 = test: as above; assay type: cell-based
How it was run: as §1

panel of Candida species = test: Candida panel MIC, statements on the whole panel; assay type: cell-based; details: in words
Experimental: (§2) The minimum inhibitory concentration of test compounds were determined in a panel of Candida species (see Table 4 below), using the a serial dilution method in 96-well plates using the following protocol.
(§3) Starter cultures of fungal strains to be tested were grown in 3 mL of RPMI 2% glucose media incubated at 37° C. with shaking at 200 rpm overnight. The culture media used was 900 mL H2O; 10.4 g RPMI 1640 (with L-glutamine and a pH indicator but without bicarbonate); 34.5 g MOPS and 18 g glucose. The pH of the media was adjusted to 7.0 with 1 M sodium hydroxide.
(§4) Solutions of the compound to be tested were prepared by dissolving the compound in DMSO and subsequently into media to the desired concentrations. 200 μL of compound solution was then added to the wells of the 96-well plate using a serial dilution method row-by row of the plate to give a compound concentration gradient across the plate of from 128 μg/mL to 0.25 μg/mL. The last two rows of each plate were control rows containing the culture media alone and the media plus fungi.
(§5) The fungi starter cultures were diluted 1:10 in water in cuvettes. This was then further diluted to an optical density (OD600) of 0.01 in media. 100 μL of the fungi was added to each well giving a starting concentration of fungus of 0.5-5×10^5/mL. One species of fungus was used on each plate. The plates were then held at 37° C. for 24 hours.
(§6) A plate reader was used to measure growth in each well at OD530 nm and the MIC was determined for each test compound. The MIC is defined as the lowest concentration giving rise to inhibition of ≥50% of that of the drug-free control well containing the fungus and media.

C. parapsilosis NCPF3209 = test: microbe, parasite or virus in culture; assay type: cell-based, Candida parapsilosis; details: Lodderomyces parapsilosis
How it was run: (§7)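 MIC taken as lowest concentration inhibiting growth ≥50% relative to drug-free control, from OD530 after 24 hours at 37° C. Fungi at 0.5-5×10^5/mL were exposed to serially diluted compound in RPMI 1640/MOPS/2% glucose medium adjusted to pH 7.0.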

Candida auris TDG2506 = test: microbe, parasite or virus in culture; assay type: cell-based; details: Candidozyma auris
How it was run: (§8)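 Growth inhibition was scored by OD530 nm after a 24 h, 37° C incubation of C. auris (0.5-5×10^5/mL) with compound dilutions in buffered RPMI glucose medium.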

Candida auris TDG2211 = test: microbe, parasite or virus in culture; assay type: cell-based; details: Candidozyma auris
How it was run: as §8

C. krusei NCPF3876 = test: microbe, parasite or virus in culture; assay type: cell-based, Candida krusei; details: Pichia kudriavzevii
How it was run: as §7

C. albicans NCPF3281 = test: Candida panel MIC, serial dilution in 96-well plates; assay type: cell-based, Candida albicans; details: NCPF3281, read-out: MIC C. albicans NCPF3281
How it was run: as §1

C. glabrata NCPF8018 = test: as above; assay type: cell-based, Candida glabrata; details: Nakaseomyces glabratus
How it was run: as §7

C. albicans 3880 = test: Candida albicans panel MIC; assay type: cell-based; details: Table 6, Candida albicans panel
Experimental: as §2, §3, §4, §5, §6
(§9) The compounds shown in Table 6 were tested against a further panel of Candida albicans.

C. albicans 3363 = test: Candida albicans panel MIC; assay type: cell-based; details: Table 6, Candida albicans panel
Experimental: as §2, §3, §4, §5, §6, §9

C. albicans 8112 = test: Candida albicans panel MIC; assay type: cell-based; details: Table 6, Candida albicans panel
Experimental: as §2, §3, §4, §5, §6, §9

C. albicans 3881 = test: Candida albicans panel MIC; assay type: cell-based; details: Table 6, Candida albicans panel
Experimental: as §2, §3, §4, §5, §6, §9

C. albicans 3645 = test: Candida albicans panel MIC; assay type: cell-based; details: Table 6, Candida albicans panel
Experimental: as §2, §3, §4, §5, §6, §9

C. albicans 3990 = test: Candida albicans panel MIC; assay type: cell-based; details: Table 6, Candida albicans panel
Experimental: as §2, §3, §4, §5, §6, §9

C. albicans 3882 = test: Candida albicans panel MIC; assay type: cell-based; details: Table 6, Candida albicans panel
Experimental: as §2, §3, §4, §5, §6, §9

C. auris 8971 = test: Candida panel MIC, serial dilution in 96-well plates; assay type: cell-based, Candida auris
How it was run: as §8

C. auris 8984 = test: as above; assay type: cell-based, Candida auris
How it was run: as §8

C. auris 8977 = test: as above; assay type: cell-based, Candida auris
How it was run: as §8

[1] = NCPF8760, Table 4, common panel, 24 hours, ≥50% inhibition, read-out: MIC C. tropicalis NCPF8760
[2] = NCPF3209, Table 4, common panel, 24 hours, ≥50% inhibition, read-out: MIC C. parapsilosis NCPF3209
[3] = TDG2506, Table 4, extended panel, 24 hours, ≥50% inhibition, read-out: MIC Candida auris TDG2506
[4] = TDG2211, Table 4, extended panel, 24 hours, ≥50% inhibition, read-out: MIC Candida auris TDG2211
[5] = NCPF3876, Table 4, common panel, 24 hours, ≥50% inhibition, read-out: MIC C. krusei NCPF3876
[6] = Candida albicans, Table 4, common panel, 24 hours, ≥50% inhibition

Row | SMILES | MIC (Candida auris TDG2512) | MIC (Candida auris TDG1102) | MIC (C. auris TDG1912) | MIC (C. tropicalis NCPF8760; [1]) | Activity against Candida auris including resistant strains (panel of Candida species) | MIC (C. parapsilosis NCPF3209; [2]) | MIC (Candida auris TDG2506; [3]) | MIC (Candida auris TDG2211; [4]) | MIC (C. krusei NCPF3876; [5]) | MIC (C. albicans NCPF3281; [6]) | other results
1 | COc1ccc(-c2ccc(NC3CCN(CC(O)(Cn4cncn4)c4ccc(F)cc4F)CC3)cc2)cc1 (stereo not shown) [Example 4, 2-(2,4-difluorophenyl)-1-(4-((4′-methoxy-[1,1′-biphenyl]-4-yl)amino)piperidin-1-yl)-3-(1H-1,2,4-triazol-1-yl)propan-2-ol] | ≤ 0.003 µg/mL | 0.006 µg/mL (≈ 0.0115 µM) | 0.06 µg/mL (≈ 0.115 µM) | 0.25 µg/mL (≈ 0.481 µM) | highly active | 0.004 µg/mL (≈ 0.0077 µM) | ≤ 0.003 µg/mL | 0.006 µg/mL (≈ 0.0115 µM) | 0.004 to 0.125 µg/mL (≈ 0.0077 to 0.241 µM) | 0.008 µg/mL (≈ 0.0154 µM) | 
2 | N#Cc1ccccc1-c1ccc(NC2CCN(CC(O)(Cn3cncn3)c3ccc(F)cc3F)CC2)cc1 (stereo not shown) [Example 5, 4′-((1-(2-(2,4-difluorophenyl)-2-hydroxy-3-(1H-1,2,4-triazol-1-yl)propyl)piperidin-4-yl)amino)-[1,1′-biphenyl]-2-carbonitrile] | ≤ 0.003 µg/mL | ≤ 0.003 µg/mL | 0.03 µg/mL (≈ 0.0583 µM) | 0.008 to 0.25 µg/mL (≈ 0.0155 to 0.486 µM) | highly active | 0.004 µg/mL (≈ 0.00777 µM) | 0.006 µg/mL (≈ 0.0117 µM) | 0.006 µg/mL (≈ 0.0117 µM) | 0.002 to 0.125 µg/mL (≈ 0.00389 to 0.243 µM) | 0.002 to 0.004 µg/mL (≈ 0.00389 to 0.00777 µM) | MIC (C. glabrata NCPF8018; NCPF8018, Table 4, common panel, 24 hours, ≥50% inhibition, read-out: MIC C. glabrata NCPF8018): 0.125 µg/mL (≈ 0.243 µM)
3 | C[C@@H](c1ncncc1F)[C@](O)(Cn1cncn1)c1ccc(F)cc1F [Voriconazole, voriconazole, reference compound] | > 128 µg/mL | > 128 µg/mL | > 32 µg/mL |  |  |  | 2 µg/mL (≈ 5.73 µM) | > 128 µg/mL |  |  | MIC (C. tropicalis NCPF8760; NCPF8760, read-out: MIC C. Tropicalis NCPF8760): 4 µg/mL (≈ 11.5 µM); MIC (C. parapsilosis NCPF3209; NCPF3209, read-out: MIC C. Parapsilosis NCPF3209): ≤ 0.25 µg/mL; MIC (Candida auris TDG2506; TDG2506, read-out: MIC C. auris 2506): 2 µg/mL (≈ 5.73 µM); MIC (Candida auris TDG2211; TDG2211, read-out: MIC C. auris 2211): > 128 µg/mL; MIC (C. glabrata NCPF8018; NCPF8018, read-out: MIC C. Glabrata NCPF8018): 1 µg/mL (≈ 2.86 µM); MIC (C. krusei NCPF3876; NCPF3876, read-out: MIC C. Krusei NCPF3876): 0.5 to 2 µg/mL (≈ 1.43 to 5.73 µM); MIC (C. albicans NCPF3281; Table 6, Candida albicans panel): ≤ 0.007 µg/mL; MIC (C. albicans 3880): 0.25 µg/mL (≈ 0.716 µM); MIC (C. albicans 3363): 1 µg/mL (≈ 2.86 µM); MIC (C. albicans 8112): ≤ 0.00781 µg/mL; MIC (C. albicans 3881): 0.25 µg/mL (≈ 0.716 µM); MIC (C. albicans 3645): ≤ 0.0078 µg/mL; MIC (C. albicans 3990): 0.25 µg/mL (≈ 0.716 µM); MIC (C. albicans 3882): 0.25 µg/mL (≈ 0.716 µM); MIC (C. auris 8971; Candidozyma auris, 8971, read-out: MIC C. auris 8971): > 32 µg/mL; MIC (C. auris 8971; Candidozyma auris, 8971, Table 4, extended panel, 24 hours, ≥50% inhibition, read-out: MIC C. auris 8971): > 32 µg/mL; MIC (C. auris 8984; Candidozyma auris, 8984, read-out: MIC C. auris 8984): > 128 µg/mL; MIC (C. auris 8984; Candidozyma auris, 8984, Table 4, extended panel, 24 hours, ≥50% inhibition, read-out: MIC C. auris 8984): > 128 µg/mL; MIC (C. auris 8977; Candidozyma auris, 8977, read-out: MIC C. auris 8977): 32 µg/mL (≈ 91.6 µM); MIC (C. auris 8977; Candidozyma auris, 8977, Table 4, extended panel, 24 hours, ≥50% inhibition, read-out: MIC C. auris 8977): 32 µg/mL (≈ 91.6 µM)
